In one series the test system is Huh7 (liver). Description: Cytotoxicity on human cells, automated nuclei counting: Huh7. The class given is cell-based. The conditions noted are these: Huh-7, exposed 24 h to 48 h, 0.1 to 25 μM. The essentials: (§1)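 Seed 4.10^3 cells/well; incubate 24 h, 37° C, 5% CO2, DMEM or RPMI with 10% FCS. Add test molecules at increasing concentrations (DMSO controls ≤1%). Analyse by automated imaging.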

The subject of a further series is HCT 116 (colon). Nature of the series: Cytotoxicity on human cells, automated nuclei counting: HCT 116. The class given is cell-based. The conditions noted are these: HCT 116 cells, exposed 24 h to 48 h, 0.1 to 25 μM. The procedure, abridged:
as §1

Another series deals with GSK-3αβ. Nature of the series: GSK-3 kinase inhibition (GS-1 substrate). The conditions noted are these: read-out: IC50 μM Kinases GSK3, buffer A, 30° C., 15 μM ATP.
A further series concerns PC3 (prostate). Description: Cytotoxicity on human cells, automated nuclei counting: PC3. Type of series: cell-based. The conditions noted are these: PC-3, exposed 24 h to 48 h, 0.1 to 25 μM. The essentials:
as §1

A further series concerns Caco (colon). Description: Cytotoxicity on human cells, automated nuclei counting: Caco. The class given is cell-based. The conditions noted are these: exposed 24 h to 48 h, 0.1 to 25 μM. The essentials: as §1
In another series the test system is MDA-MB 231 (breast). Nature of the series: Cytotoxicity on human cells, automated nuclei counting: MDA-MB 231. The class given is cell-based. The conditions noted are these: MDA-MB 231 cells, exposed 24 h to 48 h, 0.1 to 25 μM. The essentials: as §1
The next series deals with NCI (lung). Nature of the series: Cytotoxicity on human cells, automated nuclei counting: NCI. Type of series: cell-based. The conditions noted are these: exposed 24 h to 48 h, 0.1 to 25 μM. The essentials: as §1
The next series deals with T1, CDK5/D25 (Homo sapiens, UniProt Q00535).
T1 construct: made in house
T1 sequence (Q00535 whole entry): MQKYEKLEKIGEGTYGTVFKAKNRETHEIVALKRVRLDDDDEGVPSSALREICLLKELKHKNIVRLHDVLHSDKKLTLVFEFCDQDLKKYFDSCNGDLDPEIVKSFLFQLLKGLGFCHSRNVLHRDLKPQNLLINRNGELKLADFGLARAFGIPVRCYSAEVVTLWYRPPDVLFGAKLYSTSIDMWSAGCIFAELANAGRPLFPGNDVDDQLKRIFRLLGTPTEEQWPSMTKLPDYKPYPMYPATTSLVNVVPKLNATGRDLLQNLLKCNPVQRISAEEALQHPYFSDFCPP
T1 sequence (Q15078 99-307 partner limits assumed): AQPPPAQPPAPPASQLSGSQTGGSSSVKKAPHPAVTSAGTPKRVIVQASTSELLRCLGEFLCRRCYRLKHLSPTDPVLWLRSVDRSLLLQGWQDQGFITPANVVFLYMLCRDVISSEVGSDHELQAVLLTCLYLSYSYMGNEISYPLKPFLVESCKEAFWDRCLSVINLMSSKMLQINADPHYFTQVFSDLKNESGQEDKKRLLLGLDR
Nature of the series: CDK5 kinase inhibition (33P-ATP, histone H1). The conditions noted are these: buffer C, 30° C., 15 μM ATP, read-out: IC50 μM Kinases CDK5. Type of series: biochemical. The essentials:
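Kinase reactions ran in buffer C (25 mM Mops pH 7.2, 15 mM MgCl2, 1 mM DTT, phosphatase inhibitors) with [33P]-ATP for 30 min at 30° C. Phosphorylated substrate was captured on P81 phosphocellulose filters, washed in phosphoric acid and counted by scintillation.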

For the next series, the system named is fibroblast. Nature of the series: Cytotoxicity on human cells, automated nuclei counting: fibroblast. Type of series: cell-based. The conditions noted are these: exposed 24 h to 48 h, 0.1 to 25 μM. The procedure, abridged:
as §1

Another series deals with DYRK1A (Homo sapiens, UniProt Q13627). Nature of the series: DYRK1A kinase inhibition (Woodtide substrate).
The target of the next series is CDK1/cyclin B. Nature of the series: CDK1/cyclin B kinase inhibition (33P-ATP, histone H1). The conditions noted are these: buffer C, 30° C., 15 μM ATP, read-out: IC50 μM Kinases CDK1. Type of series: biochemical, sea star. How it is done: The protein kinase inhibition activities of the compounds of the invention are tested according to the following general procedure:
Buffer C: 60 mM β-glycerophosphate, 15 mM p-nitrophenyl-phosphate, 25 mM Mops (pH 7.2), 5 mM EGTA, 15 mM mgCl2, 1 mM DTT, 1 mM sodium vanadate and 1 mM phenylphosphate.
The controls were made with suitable dilutions of DMSO.
ATP (3.000 Ci/mmol.; 10 mCi/mL) in a final volume of 30 μL. After 30 mins of incubation at 30° C., 25 μL of supernatant aliquots were deposited on phosphocellulose Whatman P81 paper pieces of 2.5×3 cm, and after 20 seconds, the filters were washed five times (for at least 5 minutes each time) in a solution of 10 mL of phosphoric acid/1 litre of water. The wet filters were counted in the presence of 1 mL of scintillation fluid ACS (Amersham).

Molecules are shown by their SMILES.

As to `O=C(Nc1ccccn1)Nc1cccc2c1C1CC3(CCN1C2=O)SCCS3` (stereo not drawn) [Compound 16, 1-(6′-oxo-3′,4′,6′,10b′-tetrahydro-1′H-spiro[[1,3]dithiolane-2,2′-pyrido[2,1-a]isoindole]-10′-yl)-3-(pyridin-2-yl)urea], the melting point worked out at 242 °C. Moreover, in the series with Huh7 (liver), half-maximal inhibition (IC50) required 15 µM. In the series on HCT 116 (colon), this molecule displayed an IC50 of 10 µM. The IC50 at GSK-3αβ came to 0.033 µM. This molecule also had an IC50 with PC3 (prostate) of 6 µM. Also, 15 µM corresponded to half-maximal inhibition in the series with Caco (colon) (IC50). For the same molecule, half-maximal inhibition in the series on MDA-MB 231 (breast) (IC50) was put at 20 µM. In the series with NCI (lung), 25 µM corresponded to half-maximal inhibition (IC50). Moreover, the IC50 on CDK5/D25 amounted to 0.24 µM. In addition, the IC50 with fibroblast was above 25 µM. On DYRK1A, this molecule displayed an IC50 above 10000 nM. Further, at CDK1/cyclin B, the IC50 worked out at 0.22 µM.
Regarding `O=C(Nc1cnccn1)Nc1cccc2c1C1CC3(CCN1C2=O)SCCS3` (stereo not drawn) [Compound 17, 1-(6′-Oxo-3′,4′,6′,10b′-tetrahydro-1′H-spiro[[1,3]dithiolane-2,2′-pyrido[2,1-a]isoindole]-10′-yl)-3-(pyrazin-2-yl)urea], the melting point stood at 236 °C. The molecule further came in with an IC50 with Huh7 (liver) of 0.1 µM. This molecule also displayed an IC50 in the series with HCT 116 (colon) of 0.1 µM. In addition, on GSK-3αβ, the IC50 came to 0.044 µM. Besides, it took 0.6 µM to reach half-maximal inhibition with PC3 (prostate) (IC50). The same molecule yielded an IC50 in the series with Caco (colon) of 0.5 µM. Besides, inhibition in the series on MDA-MB 231 (breast) was half-maximal at 0.15 µM (IC50). Further, the IC50 with NCI (lung) was determined as 0.4 µM. The IC50 on CDK5/D25 was found to be 0.15 µM. In the series with fibroblast, this molecule displayed an IC50 of 0.8 µM. Besides, the IC50 on DYRK1A is above 10000 nM. For the same molecule, the IC50 on CDK1/cyclin B was found to be 0.13 µM.
On to `O=C(Nc1cc(-c2ccccc2)on1)Nc1cccc2c1C1CCCCN1C2=O` (stereo not drawn) [Compound 25, 1-(6-oxo-1,2,3,4,6,10b-hexahydropyrido[2,1-a]isoindol-10-yl)-3-(5-phenyl-isoxazol-3-yl)urea], for which the melting point was determined as 248 °C. For the same molecule, half-maximal inhibition in the series on Huh7 (liver) (IC50) was put at 0.25 µM. Also, the IC50 in the series with HCT 116 (colon) was 0.03 µM. The IC50 at GSK-3αβ turned out to be 0.27 µM. This molecule also came in with an IC50 in the series with PC3 (prostate) of 0.1 µM. This molecule also had an IC50 in the series on Caco (colon) of 0.1 µM. The same molecule registered an IC50 with MDA-MB 231 (breast) of 0.2 µM. The same molecule registered an IC50 in the series on NCI (lung) of 1.5 µM. Further, the IC50 on CDK5/D25 was 1.5 µM. This molecule also returned an IC50 in the series with fibroblast of 0.1 µM. The molecule also showed an IC50 on DYRK1A above 10000 nM. Besides, the IC50 at CDK1/cyclin B was above 10 µM.
In turn, `COc1ccc(NC(=O)Nc2cccc3c2C2CCCCN2C3=O)cn1` (stereo not drawn) [Compound 96, N-(6-Methoxypyridin-3-yl)-M-(6-oxo-1,2,3,4,6,10b-hexahydropyrido[2,1-a]isoindol-10-yl)urea] gave a melting point of 175 °C. In the series with Huh7 (liver), this molecule had an IC50 of 0.5 µM. The same molecule came in with an IC50 in the series with HCT 116 (colon) of 0.2 µM. Moreover, the IC50 at GSK-3αβ was determined as 0.23 µM. The molecule further had an IC50 with PC3 (prostate) of 0.6 µM. The molecule further gave an IC50 in the series with Caco (colon) of 0.8 µM. The same molecule registered an IC50 in the series with MDA-MB 231 (breast) of 0.2 µM. In the series on NCI (lung), this molecule returned an IC50 of 0.6 µM. Besides, the half-maximal inhibitory concentration (IC50) at CDK5/D25 stood at 1.6 µM. Besides, the half-inhibitory concentration (IC50) in the series with fibroblast was determined as 1.5 µM. Also, on CDK1/cyclin B, the IC50 was 25 µM.
`O=C(Nc1cnccn1)Nc1cccc2c1C1C[C@@H](O)CCN1C2=O` (stereo partly drawn) [Compound 105, 1-((2S)-2-Hydroxy-6-oxo-1,2,3,4,6,10b-hexahydropyrido[2,1-a]isoindol-10-yl)-3-(pyrazin-2-yl)urea]: the melting point is 250 °C. For the same molecule, half-maximal inhibition in the series on Huh7 (liver) (IC50) required 4 µM. The IC50 with HCT 116 (colon) is 8 µM. On GSK-3αβ, the IC50 amounted to 0.032 µM. For the same molecule, the IC50 with PC3 (prostate) came out at 20 µM. Moreover, in the series on Caco (colon), the IC50 was above 25 µM. The IC50 with MDA-MB 231 (breast) amounted to 25 µM. Besides, in the series with NCI (lung), the IC50 turned out to be 8 µM. Moreover, the IC50 on CDK5/D25 stood at 0.084 µM. This molecule also registered an IC50 in the series with fibroblast of 12 µM. Moreover, on DYRK1A, the IC50 is above 10000 nM.
Consider `COc1cc(NC(=O)Nc2cccc3c2C2CC(O)CCN2C3=O)nc2ccccc12` (stereo not drawn) [Compound 109, 1-(2-Hydroxy-6-oxo-1,2,3,4,6,10b-hexahydropyrido[2,1-a]isoindol-10-yl)-3-(4-methoxyquinolin-2-yl)urea], for which the melting point is above 260 °C. In the series on Huh7 (liver), half-maximal inhibition (IC50) required 1 µM. In the series on HCT 116 (colon), this molecule registered an IC50 of 1 µM. The IC50 on GSK-3αβ was determined as 0.035 µM. This molecule also returned an IC50 in the series with PC3 (prostate) of 5 µM. Also, the IC50 with Caco (colon) was found to be 15 µM. The IC50 in the series on MDA-MB 231 (breast) was determined as 6 µM. Besides, in the series with NCI (lung), the IC50 was found to be 1 µM. Moreover, the IC50 on CDK5/D25 stood at 4.9 µM. For the same molecule, in the series with fibroblast, the IC50 came out at 5 µM. The molecule also showed an IC50 at DYRK1A above 10000 nM.

Broadly, the IC50 is the concentration that inhibits the measured activity by half. The term melting point denotes the temperature of the solid-liquid transition.

(Values after patent US20120095022A1, “DERIVATIVES OF 10-AMINO-1,2,3,4-TETRAHYDROPYRIDO[2,1-A]ISOINDOL-6(10BH)-ONES, METHOD FOR PREPARATION THEREOF AND THERAPEUTIC USES THEREOF” (UNIVERSITE D'ORLEANS, priority 2009, published 2012).)
